Where only a bound is given, the exact number is not on record here.

The target in one assay is p38 MAP kinase (Homo sapiens, UniProt Q16539). The experiment in a line: p38 MAP Kinase Assay (33P incorporation into myelin basic protein, filter plate). The format is biochemical. The conditions noted are these: Table 1; MKK6-activated p38, MBP substrate, 50 minutes. The method, then: The activated p38 is then diluted 1:6 with assay buffer, and 20 μl mixed with 25 μl of MBP mix (300 μl 10×strength assay buffer, 300 μl of 10 mM DTT & 10 mM sodium orthovanadate, 1.7 ml H2O, 50 μCi γ^33P-ATP, 200 μl of myelin basic protein (MBP) (5 mg/ml)) and added to 96 well plates along with 5 μl of various dilutions of the test compound in DMSO (up to 10%). The reaction is allowed to proceed for 50 minutes before being stopped with an excess of ortho-phosphoric acid (30 μl at 2%).
p38 MAP kinase, sequence (Q16539 whole entry): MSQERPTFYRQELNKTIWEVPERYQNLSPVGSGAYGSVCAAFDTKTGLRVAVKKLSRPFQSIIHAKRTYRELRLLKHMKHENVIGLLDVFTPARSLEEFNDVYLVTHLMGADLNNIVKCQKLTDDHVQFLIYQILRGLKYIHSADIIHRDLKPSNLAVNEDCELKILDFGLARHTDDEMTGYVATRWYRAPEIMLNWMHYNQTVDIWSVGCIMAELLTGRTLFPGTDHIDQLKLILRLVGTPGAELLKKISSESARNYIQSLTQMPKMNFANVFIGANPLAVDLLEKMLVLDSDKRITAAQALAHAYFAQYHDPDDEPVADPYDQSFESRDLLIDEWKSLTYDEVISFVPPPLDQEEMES
γ^33P-ATP which remains unincorporated into the myelin basic protein is separated from phosphorylated MBP on a Millipore MAPH filter plate. The wells of the MAPH plate are wetted with 0.5% orthophosphoric acid, and then the results of the reaction are filtered with a Millipore vacuum filtration unit through the wells. Following filtration, the residue is washed twice with 200 μl of 0.5% orthophosphoric acid. Once the filters have dried, 25 μl of Microscint 20 scintillant is added, and then counted on a Packard Topcount for 30 seconds.
The compound `Cc1cc(C)cc(COc2cccnc2N)c1` [Compound 19] had an IC50 of under 200 µM.

`c1cc(COc2cccnc2)cc(COc2cccnc2)c1` [Compound 58] yielded a half-inhibitory concentration (IC50) of under 1000 µM.

The compound `Nc1ncccc1OCc1cc(NC(=O)c2ccccc2)ccc1Cl` [Compound 57, N-[3-(2-Amino-pyridin-3-yloxymethyl)-4-chloro-phenyl]-benzamide] registered a 50% inhibitory concentration (IC50) of under 20 µM.

`Nc1ncccc1OCc1ccccc1CS(=O)(=O)c1ccccc1` [Compound 25] showed a half-maximal inhibitory concentration (IC50) of under 1000 µM.

`O=S(=O)(Nc1ccc(Cl)c(COc2cccnc2)c1)c1ccccc1` [Compound 55, N-(4-Chloro-3-(pyridin-3-yloxymethyl)-phenyl]-benzenesulfonamide] displayed an IC50 of under 200 µM.

In turn, `Nc1ncccc1OCc1c(F)cc(F)cc1F` [Compound 32] returned an IC50 of under 1000 µM.

For the compound `Clc1cccc(Cl)c1COc1ccc(N2CCOCC2)nc1` [Compound 54], the 50% inhibitory concentration (IC50) is under 1000 µM.

`Nc1ncccc1OCc1ccc(F)cc1Cl` [Compound 31] had an IC50 of under 1000 µM.

For the compound `NC(=O)Nc1ccc(Cl)c(COc2cccnc2)c1` [Compound 63, [4-Chloro-3-(pyridin-3-yloxymethyl)-phenyl]-urea], the IC50 was under 20 µM.

In turn, `Nc1ccncc1OCc1cccc2ccccc12` [Compound 46] displayed an IC50 of under 1000 µM.

Take `Nc1ncccc1OCc1ccc(Cl)c(F)c1` [Compound 16, 2-amino-3-(4-chloro-3-fluorobenzyloxy)pyridine]: the IC50 is under 200 µM.

For `Nc1ncccc1OCc1cccc2ccoc12` [Compound 47], the half-maximal inhibitory concentration (IC50) was under 1000 µM.

As for `O=C(Nc1ccc(Cl)c(COc2cccnc2)c1)c1ccncc1` [Compound 53, N-[4-Chloro-3-(pyridin-3-yloxymethyl)-phenyl]-isonicotinamide], the IC50 was under 200 µM.

The compound `Nc1ncccc1OCc1ccccc1-c1ccccc1` [Compound 2] returned an IC50 of under 10 µM.

`Nc1ncccc1OCc1csc2ccccc12` [Compound 40] gave an IC50 of under 1000 µM.

`CC(=O)Nc1ccc(Cl)c(COc2cccnc2)c1` [Compound 43] gave an IC50 of under 1000 µM.

`O=C(Nc1ccc(F)c(COc2cccnc2)c1)c1ccccc1` [Compound 59, N-[4-Fluoro-3-(pyridin-3-yloxymethyl)-phenyl]-benzamide] displayed an IC50 of under 200 µM.

`CC(C)c1nnc(NC(=O)Nc2ccc(F)c(COc3cccnc3)c2)s1` [Compound 81, 1-[4-Fluoro-3-(pyridin-3-yloxymethyl)-phenyl]-3-(5-isopropyl-[1,3,4]thiadiazol-2-yl)-urea]: the IC50 is under 20 µM.

Compound `O=C(Nc1ccc(Cl)c(COc2cccnc2)c1)c1cccc(F)c1` [Compound 50, N-[4-Chloro-3-(pyridin-3-yloxymethyl)-phenyl]-3-fluoro-benzamide] had a 50% inhibitory concentration (IC50) of under 200 µM.

Consider `Nc1ncccc1OCc1ccc(F)cc1F` [Compound 13, 2-amino-3-(2,4-difluorobenzyloxy)pyridine], for which the half-maximal inhibitory concentration (IC50) is under 1000 µM.

Turning to `Nc1ccc(Cl)c(COc2cccnc2)c1` [Compound 41], the IC50 is under 1000 µM.

For the compound `O=C(Nc1cccc(COc2cccnc2)c1)c1cc(F)cc(N2CCOCC2)c1` [Compound 67, 3-Fluoro-5-morpholin-4-yl-N-[3-(pyridin-3-yloxymethyl)-phenyl]-benzamide], the IC50 is under 20 µM.

The compound `Nc1ncccc1OCc1cccc(-c2ccccc2)c1` [Compound 20] displayed a concentration for half-maximal inhibition (IC50) of under 200 µM.

Compound `Nc1ncccc1OCc1cccc(C(=O)NCC2CC2)c1` [Compound 34] displayed a 50% inhibitory concentration (IC50) of under 1000 µM.

The assay is the same for the next values; noted with them: Table 2; MKK6-activated p38, MBP substrate, 50 minutes.
`COc1cc(C(=O)Nc2ccc(F)c(COc3cnccn3)c2)nc(Cl)n1` [Compound 105, 2-Chloro-6-methoxy-pyrimidine-4-carboxylic acid [4-fluoro-3-(pyrazin-2-yloxymethyl)-phenyl]-amide] had a 50% inhibitory concentration (IC50) of under 1000 µM.

With `O=C(Cn1ccnc1)Nc1cnc(OCc2c(Cl)cccc2Cl)cn1` [Compound 174], the IC50 is under 20 µM.

For `Nc1cnc(OCc2ccccc2)cn1` [Compound 86], the IC50 is under 1000 µM.

`CC(C)(C)c1ccc(-n2nc(C3CC3)cc2NC(=O)Nc2ccc(F)c(COc3cnccn3)c2)cc1` [Compound 164, 1-[2-(4-tert-Butyl-phenyl)-5-cyclopropyl-2H-pyrazol-3-yl]-3-[4-fluoro-3-(pyrazin-2-yloxymethyl)-phenyl]-urea] returned an IC50 of under 200 µM.

Take `CC(C)(CO)NC(=O)Nc1cnc(OCc2c(Cl)cccc2Cl)cn1` [Compound 176]: the IC50 is under 2 µM.

With `O=C(CN1CCCCC1)Nc1cnc(OCc2c(Cl)cccc2Cl)cn1` [Compound 172], the IC50 was under 200 µM.

`C=CS(=O)(=O)Nc1cnc(OCc2c(Cl)cccc2Cl)cn1` [Compound 145] had an IC50 of under 200 µM.

For `O=C(Nc1ccc(F)c(COc2cnccn2)c1)c1cccc(S(=O)(=O)N2CCOCC2)c1` [Compound 98, N-[4-Fluoro-3-(pyrazin-2-yloxymethyl)-phenyl]-3-(morpholine-4-sulfonyl)-benzamide], the IC50 was under 2 µM.

On to `CC(C)(C)c1cc(NC(=O)Nc2ccc(F)c(COc3cnccn3)c2)n(-c2ccc(Cl)nn2)n1` [Compound 156, 1-[5-tert-Butyl-2-(6-chloro-pyridazin-3-yl)-2H-pyrazol-3-yl]-3-[4-fluoro-3-(pyrazin-2-yloxymethyl)-phenyl]-urea], for which the IC50 was under 2 µM.

Compound `CC1(C(=O)Nc2cnc(OCc3c(Cl)cccc3Cl)cn2)CC1` [Compound 168] had an IC50 of under 200 µM.

`CC(C)(CO)C(=O)Nc1cnc(OCc2c(Cl)cccc2Cl)cn1` [Compound 177] returned an IC50 of under 200 µM.

`C[S+]([O-])c1nnc(NC(=O)Nc2ccc(F)c(COc3cnccn3)c2)s1` (centres unmarked) [Compound 159, 1-[4-Fluoro-3-(pyrazin-2-yloxymethyl)-phenyl]-3-(5-methanesulfinyl-[1,3,4]thiadiazol-2-yl)-urea] showed an IC50 of under 1000 µM.

For the compound `O=C(Nc1ccc(F)c(COc2cnccn2)c1)Nc1nnc(C2CCCO2)s1` (centres unmarked) [Compound 140, 1-[4-Fluoro-3-(pyrazin-2-yloxymethyl)-phenyl]-3-[5-(tetrahydro-furan-2-yl)-[1,3,4]thiadiazol-2-yl]-urea], the half-maximal inhibitory concentration (IC50) was under 2 µM.

`Clc1cccc(Cl)c1COc1cnccn1` [Compound 87] came in with an IC50 of under 200 µM.

`CN1CCC(CC(=O)Nc2cnc(OCc3c(Cl)cccc3Cl)cn2)CC1` [Compound 169] came in with an IC50 of under 200 µM.

`O=C(Nc1ccc(F)c(COc2cnccn2)c1)Nc1nnc(C2CCCO2)s1` (centres unmarked) [Compound 120, 1-[4-Fluoro-3-(pyrazin-2-yloxymethyl)-phenyl]-3-[5-(tetrahydro-furan-2-yl)-[1,3,4]thiadiazol-2-yl]-urea] returned an IC50 of under 2 µM.

Regarding `CN1CCCC(CNC(=O)c2cnc(OCc3c(Cl)cccc3Cl)cn2)C1` (centres unmarked) [Compound 162], the IC50 was under 1000 µM.

Compound `CC(C)(C)c1cc(NC(=O)Nc2ccc(Cl)c(COc3cnccn3)c2)[nH]n1` [Compound 95] displayed a concentration for half-maximal inhibition (IC50) of under 20 µM.

As for `CC(C)(C)c1cc(NC(=O)Nc2ccc(F)c(COc3cnccn3)c2)n(-c2ccccc2)n1` [Compound 106, 1-(5-tert-Butyl-2-phenyl-2H-pyrazol-3-yl)-3-[4-fluoro-3-(pyrazin-2-yloxymethyl)-phenyl]-urea], the half-inhibitory concentration (IC50) was under 2 µM.

Compound `Cc1nc(-c2cccc(C(=O)Nc3ccc(F)c(COc4cnccn4)c3)c2)cs1` [Compound 151, N-[4-Fluoro-3-(pyrazin-2-yloxymethyl)-phenyl]-3-(2-methyl-thiazol-4-yl)-benzamide] gave a 50% inhibitory concentration (IC50) of under 2 µM.

`CC(C)(C)c1cc(NC(=O)Nc2ccc(F)c(COc3cnccn3)c2)n(-c2nc3ccccc3s2)n1` [Compound 155, 1-(2-Benzothiazol-2-yl-5-tert-butyl-2H-pyrazol-3-yl)-3-[4-fluoro-3-(pyrazin-2-yloxymethyl)-phenyl]-urea] returned a half-inhibitory concentration (IC50) of under 20 µM.

Compound `O=C(Nc1ccc(F)c(COc2cnccn2)c1)Nc1nc(-c2ccccc2)cs1` [Compound 123, 1-[4-Fluoro-3-(pyrazin-2-yloxymethyl)-phenyl]-3-(4-phenyl-thiazol-2-yl)-urea] had an IC50 of under 20 µM.

The compound `O=C(Nc1ccc(F)c(COc2cnccn2)c1)Nc1nnc(CC2CC2)s1` [Compound 96, 1-(5-Cyclopropylmethyl-[1,3,4]thiadiazol-2-yl)-3-[4-fluoro-3-(pyrazin-2-yloxymethyl)-phenyl]-urea] displayed an IC50 of under 2 µM.

Take `O=C(CN1CCOCC1)Nc1cnc(OCc2c(Cl)cccc2Cl)cn1` [Compound 171]: the 50% inhibitory concentration (IC50) was under 200 µM.

Compound `Clc1cccc(Cl)c1COc1cnc(NC2CCOCC2)cn1` [Compound 166] gave a 50% inhibitory concentration (IC50) of under 200 µM.

The compound `Cc1noc(-c2ccccc2)c1C(=O)Nc1ccc(F)c(COc2cnccn2)c1` [Compound 122, 3-Methyl-5-phenyl-isoxazole-4-carboxylic acid [4-fluoro-3-(pyrazin-2-yloxymethyl)-phenyl]-amide] yielded an IC50 of under 200 µM.

With `CC(C)(C)OC(=O)Nc1ccc(Cl)c(COc2cnccn2)c1` [Compound 89], the IC50 is under 1000 µM.

In turn, `O=C(Nc1ccc(F)c(COc2cnccn2)c1)c1cc(N2CCOCC2)nc(N2CCOCC2)n1` [Compound 150, 2,6-Di-morpholin-4-yl-pyrimidine-4-carboxylic acid [4-fluoro-3-(pyrazin-2-yloxymethyl)-phenyl]-amide] registered a concentration for half-maximal inhibition (IC50) of under 2 µM.

`CC(C)c1nnc(NC(=O)Nc2ccc(F)c(COc3cnccn3)c2)s1` [Compound 97, 1-[4-Fluoro-3-(pyrazin-2-yloxymethyl)-phenyl]-3-(5-isopropyl-[1,3,4]thiadiazol-2-yl)-urea] gave a 50% inhibitory concentration (IC50) of under 20 µM.
